Data: patent US5668173A, “Method of increasing the conversion of homocysteine to methionine and uses thereof” (priority 1996, dated 1997)
Entries after “also recorded” stand apart in the source; their conditions may differ. Where two headings read alike, the source gives them in different places.

Experiments:
[1] = system: horse betaine-homocysteine methyltrasferase; settings: saturating levels of substrate; purified horse enzyme; cited from earlier work
[2] = biological target: T1, pig liver betaine-homocysteine methyltransferase (Sus scrofa, UniProt A0A5G2RCW6); experiment: Initial rate kinetics of purified pig liver betaine-homocysteine methyltransferase; assay type: biochemical; settings: for Vmax(rel): Table II, relative, corrected for an equivalent amount of enzyme
T1 construct: given as hexamer, now known as homotetramer
T1 sequence (A0A5G2RCW6 1-407): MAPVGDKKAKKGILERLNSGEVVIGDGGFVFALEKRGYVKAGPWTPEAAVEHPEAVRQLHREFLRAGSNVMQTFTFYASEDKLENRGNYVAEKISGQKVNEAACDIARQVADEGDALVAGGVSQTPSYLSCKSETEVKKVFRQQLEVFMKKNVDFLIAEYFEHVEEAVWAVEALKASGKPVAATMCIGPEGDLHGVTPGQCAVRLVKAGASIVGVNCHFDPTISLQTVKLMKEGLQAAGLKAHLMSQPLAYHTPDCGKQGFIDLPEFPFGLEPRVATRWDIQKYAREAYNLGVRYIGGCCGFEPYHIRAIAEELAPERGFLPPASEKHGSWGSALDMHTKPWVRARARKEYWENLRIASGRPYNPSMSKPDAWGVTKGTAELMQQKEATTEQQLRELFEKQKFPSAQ
Method: (§1) Betaine-homocysteine methyltransferase activity was measured as described by Finkelstein and Mudd (43) with the following minor modifications. […] Following a 2 hour incubation, samples were chilled to 0° C. and 2.5 mL ice-cold water was added. The samples were loaded onto a 0.5 cm (diameter) column containing 1 mL of Dowex 1-X4 (OH--) resin (100-200 mesh). The unreacted betaine (or dimethylacetothetin) was washed from the column with water (3×5 mL), and dimethylglycine (or methylthioacetate) and methionine eluted into scintiallation vials with 3 mL 1.5 N HCl. Blanks contained all of the reaction components except enzyme and their values were subtracted from the sample values. All samples were assayed in duplicate.
Michealis and Vmax constants were estimated from plotting initial rate data according to the method of Hanes (44).
Betaine-homocysteine methyltransferase has been purified to homogeneity from pig liver (45).
Using purified enzyme, initial rate studies were performed to determine the Michaelis constants of betaine, dimethylacetothetin, and homocysteine and to investigate the kinetic mechanism of the enzyme.

[3] = system: Escherichia coli; settings: cited from earlier work
[4] = system: betaine-homocysteine methyltransferase; settings: cited from earlier work; for methionine produced compared with betaine as methyl donor: saturating levels of substrates, corrected for enzyme concentration
[5] = system: animals; settings: prior studies; cited from earlier work
[6] = system: growing rats; settings: cited from earlier work; for replacement of dietary requirement for choline: growing rats, diets lacking methionine but containing homocystine; for food intake and growth: thetins 0.5-0.93% (w/w) of the diet, 3 to 4 weeks
[7] = high dietary levels; cited from earlier work
[8] = system: hepatic betaine-homocysteine methyltransferase; settings: surfeit dietary levels, crude liver extracts, compared to control; cited from earlier work
[9] = sulfur amino acid intake optimal; cited from earlier work
[10] = system: cystathionine-β-synthase; settings: dietary cysteine increased; cited from earlier work
[11] = system: human betaine-homocysteine methyltransferase; settings: human enzyme containing extracts; read-out: Michealis constant; cited from earlier work
[12] = system: rat betaine-homocysteine methyltransferase; settings: rat enzyme containing extracts; read-out: Michealis constant; cited from earlier work
[13] = system: primates; settings: infusion, 3 month period; cited from earlier work
[14] = system: pigs; settings: dietary betaine; cited from earlier work
[15] = cited from earlier work; for urinary level during betaine treatment: urine
[16] = system: chickens; settings: cited from earlier work
[17] = system: chickens; settings: dietary; cited from earlier work
[18] = biological target: T1, pig liver betaine-homocysteine methyltransferase; experiment: Product inhibition of pig liver betaine-homocysteine methyltransferase activity; assay type: biochemical; settings: for pmol methionine: inhibitor 50 μM, L-homocysteine 50 μM, betaine 25 μM
Method: as §1
The subsequent metabolism of these products could have significant effects on flux through the betaine-homocysteine methyltransferase reaction because the rate of product removal would determine whether a product accumulates enough to inhibit enzyme activity. When pharmacological doses of betaine is used for the treatment of severe hyperhomocyst(e)inemia, dimethylglycine oxidation appears to be insufficient, and as a result, dimethylglycine accumulates.
Inhibition pf pig liver betaine-homocysteine methyltransferase
activity by dimethyglycine ethylthoacetate in the presence of
It is possible that homocysteine, dimethylglycine, and betaine-homocysteine methyltransferase form an abortive ternary complex.

[19] = system: cystathionine-β-synthase deficiency; settings: cited from earlier work
[20] = system: human betaine-homocysteine methyltransferase; settings: cited from earlier work
[21] = system: rat betaine-homocysteine methyltransferase; settings: cited from earlier work
[22] = substrate: N[C@@H](CCS)C(=O)O; experiment: purified protein, by the assay type; settings: other: saturating levels of one substrate while varying the other; betaine 250 μM or L-homocysteine 500 μM fixed
[23] = substrate: C[S+](C)CC(=O)O; experiment: Initial rate kinetics of purified pig liver betaine-homocysteine methyltransferase; assay type: biochemical; settings: other: saturating levels of one substrate while varying the other; betaine 250 μM or L-homocysteine 500 μM fixed
Method: (§2) Betaine-homocysteine methyltransferase activity was measured as described by Finkelstein and Mudd (43) with the following minor modifications. […] Following a 2 hour incubation, samples were chilled to 0° C. and 2.5 mL ice-cold water was added. The samples were loaded onto a 0.5 cm (diameter) column containing 1 mL of Dowex 1-X4 (OH--) resin (100-200 mesh). […] Blanks contained all of the reaction components except enzyme and their values were subtracted from the sample values. All samples were assayed in duplicate.

[24] = substrate: C[N+](C)(C)CC(=O)O; experiment: as above; assay type: biochemical; settings: other: saturating levels of one substrate while varying the other; betaine 250 μM or L-homocysteine 500 μM fixed
Method: as §2

Question: For `C[S+](C)CC(=O)O` [dimethylacetothetin], which “increase in methionine production compared to betaine” value [1] is on record?
Answer: Its value is 350 fold.

Question: What about the “Vmax(rel)” value [2] of the same molecule?
Answer: The value was 7.

Question: And the “rate of methylation of homocysteine, faster than with betaine” value ([2]; equimolar concentrations as betaine, inferred from Vmax/Km)?
Answer: Its value is “at least 700%”.

Question: And the “Vmax/Km compared with betaine” value ([2]; greater than that for betaine)?
Answer: Its value is 7 fold.

Question: And the “relative Vmax compared with betaine” value ([2]; greater than when betaine was used)?
Answer: The value was 47 fold.

Question: And the “specificity (Vmax/Km) compared with betaine” value ([2]; initial rate studies)?
Answer: The value was “greater specificity”.

Question: And the “effectiveness as osmolyte compared with betaine” value [3]?
Answer: The value was “equally effective as betaine”.

Question: What about the “methionine produced compared with betaine as methyl donor” value [4] of the same molecule?
Answer: Its value is “more methionine was produced”.

Question: What about the “toxicity to animals” value [5] of the same molecule?
Answer: Its value is “non-toxic to animals”.

Question: What about the “replacement of dietary requirement for choline” value [6] of the same molecule?
Answer: The value was “can replace the dietary requirement for choline; also recorded: replace the dietary requirement for choline (or betaine)”.

Question: Which “toxicity” value [7] does the source give for `CSCCC(=O)O` [3-methylthiopropionate] here?
Answer: Its value is “produces toxic symptoms identical to those produced by excess methionine consumption”.

Question: With `CSCC[C@H](N)C(=O)O` [methionine] as the molecule, how does the “hepatic betaine-homocysteine methyltransferase activity” value [8] read?
Answer: Its value is “higher levels of betaine-homocysteine methyltransferase activity”.

Question: What about the “toxicity” value [7] of the same molecule?
Answer: Its value is “most toxic of all amino acids required for protein synthesis”.

Question: What about the “absorbed methionine converted to cysteine or completely oxidized” value [9] of the same molecule?
Answer: The value was “about 30%”.

Question: And the “absorbed methionine retained by the animal” value [9]?
Answer: Its value is “about 70%”.

Question: Which “cystathionine-β-synthase activity and mRNA levels” value [10] does the source give for `N[C@@H](CS)C(=O)O` [cysteine] here?
Answer: Its value is “decrease”.

Question: With `C[N+](C)(C)CCO` [choline] as the molecule, how does the “food intake and growth” value [6] read?
Answer: The value was “not different among experimental groups”.

Question: What does the source list for `N[C@@H](CCS)C(=O)O` [homocysteine]?
Answer: Km [11]: 25 to 50 µM; Km [12]: 25 to 50 µM; vascular lesions [13]: vascular lesions have been induced in primates

Question: With `C[N+](C)(C)CC(=O)O` [betaine] as the molecule, how does the “Vmax(rel)” value [2] read?
Answer: The value was 1.

Question: What about the “hepatic betaine-homocysteine methyltransferase activity” value [8] of the same molecule?
Answer: The value was “higher levels of betaine-homocysteine methyltransferase activity”.

Question: And the Km [11]?
Answer: Its Km is 25 to 50 µM.

Question: And the “carcass fat” value [14]?
Answer: The value was “can reduce carcass fat”.

Question: And the “normalization of plasma homocysteine” value ([15]; betaine treatment of severe hyperhomocyst(e)inemia)?
Answer: Its value is “rarely attained; also recorded: usually does not fall within the normal range; also recorded: does not usually lower plasma homocysteine to within the normal range”.

Question: What about the “plasma homocysteine” value ([15]; pharmacological doses of betaine, hyperhomocyst(e)inemia) of the same molecule?
Answer: The value was “reduce plasma homocysteine; also recorded: generally lowers plasma homocysteine compared to pretreatment levels”.

Question: What about the “urinary level during betaine treatment” value [15] of the same molecule?
Answer: The value was “dramatic increase”.

Question: And the “Kcat of betaine-dependent reaction” value [4]?
Answer: The value was “very low Kcat”.

Question: What about the Km ([4]; prior studies, source of enzyme not stated) of the same molecule?
Answer: Its Km is 20 to 50 µM.

Question: What about the Km [12] of the same molecule?
Answer: Its Km is 25 to 50 µM.

Question: And the “carcass fat” value ([16]; dietary betaine, chickens)?
Answer: The value was “can reduce carcass fat”.

Question: And the “treatment of diarrhea and wet litter” value ([16]; fowl)?
Answer: The value was “effective in the treatment of diarrhea and wet litter”.

Question: What about the “replacement of dietary requirement for choline” value [6] of the same molecule?
Answer: Its value is “can replace the dietary requirement for choline”.

Question: And the “food intake and growth” value [6]?
Answer: The value was “not different among experimental groups”.

Question: With `O=S(=O)(O)O` [sulfate] as the molecule, how does the “cystine requirements” value [17] read?
Answer: Its value is “decrease cystine requirements”.

Question: With `CSCC(=O)O` [methylthioacetate] as the molecule, how does the activity at 50 µM [18] read?
Answer: The activity at 50 µM was 59%.

Question: What about the pmol methionine [18] of the same molecule?
Answer: Its pmol methionine is 416 pmol.

Question: What about the “affinity for betaine-homocysteine methyltransferase relative to dimethylglycine” value ([18]; than dimethylglycine) of the same molecule?
Answer: The value was “lower affinity”.

Question: Which results are given for vitamin B6?
Answer: individuals non-responsive to vitamin B6 [19]: 50%; individuals responding to supplemental B6 [19]: approximately 50%

Question: What does the source list for `CN(C)CC(=O)O` [dimethylglycine]?
Answer: urinary level during betaine treatment [15]: dramatic increase; activity at 50 µM [18]: 30%; type of inhibition relative to homocysteine ([18]; Dixon plots, betaine 25 μM or 250 μM, L-homocysteine varied): uncompetitive inhibitor; also recorded: uncompetitive inhibition; pmol methionine [18]: 208 pmol; inhibition of pig betaine-homocysteine methyltransferase ([18]; product inhibition studies): potent inhibitor; inhibition of methionine production ([20]; 10 μM dimethylglycine): 50%; inhibition of human betaine-homocysteine methyltransferase [20]: potent inhibitor; inhibition of rat betaine-homocysteine methyltransferase [21]: potent inhibitor

Question: What does the source list for `C[S+](C)CCC(=O)O` [dimethylpropiothetin]?
Answer: increase in methionine production compared to betaine [1]: 54 fold; Vmax compared with betaine-dependent reaction ([4]; previous studies): higher Vmax; Vmax compared with dimethylacetothetin-dependent reaction ([4]; previous studies): lower Vmax; methionine produced compared with betaine as methyl donor [4]: more methionine was produced; toxicity to animals [5]: non-toxic to animals; replacement of dietary requirement for choline ([6]; listed as dimethylpropriothetin): can replace the dietary requirement for choline; also recorded: replace the dietary requirement for choline (or betaine)

B1: pig liver betaine-homocysteine methyltransferase (Sus scrofa) (protein)
chain: MAPVGDKKAKKGILERLNSGEVVIGDGGFVFALEKRGYVKAGPWTPEAAVEHPEAVRQLHREFLRAGSNVMQTFTFYASEDKLENRGNYVAEKISGQKVNEAACDIARQVADEGDALVAGGVSQTPSYLSCKSETEVKKVFRQQLEVFMKKNVDFLIAEYFEHVEEAVWAVEALKASGKPVAATMCIGPEGDLHGVTPGQCAVRLVKAGASIVGVNCHFDPTISLQTVKLMKEGLQAAGLKAHLMSQPLAYHTPDCGKQGFIDLPEFPFGLEPRVATRWDIQKYAREAYNLGVRYIGGCCGFEPYHIRAIAEELAPERGFLPPASEKHGSWGSALDMHTKPWVRARARKEYWENLRIASGRPYNPSMSKPDAWGVTKGTAELMQQKEATTEQQLRELFEKQKFPSAQ
notes: given as hexamer, now known as homotetramer
Question: For B1, which Km [22] is on record?
Answer: The Km was 32 µM.

Question: And the Km [23]?
Answer: Its Km is 155 µM.

Question: And the Km [24]?
Answer: The Km was 23 µM.
